The values that follow come from ChEMBL document CHEMBL1131403, “Selective inhibition of the chymotrypsin-like activity of the 20S proteasome by 5-methoxy-1-indanone dipeptide benzamides” (Bioorg Med Chem Lett, 1998).

The test system of assay [1] is Proteasome. The assay is described as follows: Inhibition of chymotrypsin-like activity of 20S proteasome. It counts as subcellular.
The target of assay [2] is T1, Calpain 1 (Homo sapiens, UniProt P04632+P07384).
T1 sequence (P04632 whole entry): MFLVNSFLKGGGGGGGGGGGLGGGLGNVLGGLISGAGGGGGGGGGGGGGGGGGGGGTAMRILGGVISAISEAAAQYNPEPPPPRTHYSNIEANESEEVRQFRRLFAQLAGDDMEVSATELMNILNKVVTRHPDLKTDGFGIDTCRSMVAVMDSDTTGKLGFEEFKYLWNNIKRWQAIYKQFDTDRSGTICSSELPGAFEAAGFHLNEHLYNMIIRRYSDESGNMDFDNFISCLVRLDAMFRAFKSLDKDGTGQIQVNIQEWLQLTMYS
T1 sequence (P07384 whole entry): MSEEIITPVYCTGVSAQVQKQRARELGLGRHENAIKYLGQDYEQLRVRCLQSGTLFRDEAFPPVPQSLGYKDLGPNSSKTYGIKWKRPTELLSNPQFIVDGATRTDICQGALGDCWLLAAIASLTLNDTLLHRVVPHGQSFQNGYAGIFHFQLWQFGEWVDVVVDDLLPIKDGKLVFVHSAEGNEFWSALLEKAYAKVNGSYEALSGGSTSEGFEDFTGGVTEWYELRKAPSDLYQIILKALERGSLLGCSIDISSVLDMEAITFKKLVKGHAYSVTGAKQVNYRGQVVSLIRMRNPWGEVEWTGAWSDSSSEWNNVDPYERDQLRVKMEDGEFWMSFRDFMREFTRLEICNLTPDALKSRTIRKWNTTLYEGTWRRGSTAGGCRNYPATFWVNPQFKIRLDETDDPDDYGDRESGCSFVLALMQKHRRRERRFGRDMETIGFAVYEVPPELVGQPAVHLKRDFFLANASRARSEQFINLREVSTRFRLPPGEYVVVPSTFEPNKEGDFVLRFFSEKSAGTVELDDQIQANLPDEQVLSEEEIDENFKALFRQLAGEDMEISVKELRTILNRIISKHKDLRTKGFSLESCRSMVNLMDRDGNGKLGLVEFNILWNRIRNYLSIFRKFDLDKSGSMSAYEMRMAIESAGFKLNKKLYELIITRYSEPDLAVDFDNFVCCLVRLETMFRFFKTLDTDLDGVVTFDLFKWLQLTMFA
Kind of assay: Inhibitory activity against calpain I; no inhibition was observed. Format: protein-complex assay.

The subject of the next assay is RAW. The assay is described as follows: Antiproliferative activity against murine macrophage (RAW) cell line. The note with it: Mus musculus. Format: functional, cell-based.
Assay [3] concerns Proteasome. The assay is described as follows: Inhibition of chymotrypsin-like activity of 20S proteasome; value ranges from 10-20 uM. Format: subcellular.
In assay [4] the target is Calpain 1 (Homo sapiens, UniProt P07384). The assay is described as follows: Inhibitory activity against Calpain I. Format: protein-complex assay.

Where a SMILES comes first, the peptide text is derived from it. [ ]: non-standard residue; d: D form. Nle = CCCC[C@H](N)C(=O)O

The IC50 is the point on the concentration scale where inhibition reaches its midpoint. On to `COc1ccc2c(c1)C(CC(=O)N[C@@H](CC(C)C)C(=O)N[C@H](CC(C)C)C(=O)NCc1ccc([N+](=O)[O-])cc1)CC2=O` (some centres undefined), for which the results for the IC50 with Proteasome [1] and on Calpain 1 [2] were above 17 µM and “No inhibition”, respectively.

In the case of `COc1ccc2c(c1)C(CC(=O)N[C@@H](CC(C)C)C(=O)N[C@H](CC(C)C)C(=O)N(C)Cc1ccccc1)CC2=O` (some centres undefined), the IC50 in the assay with Proteasome [1] is above 18 µM; at Calpain 1 [2], “No inhibition”.

`COc1ccc2c(c1)C(CC(=O)N[C@H](CC(C)C)C(=O)N[C@H](CC(C)C)C(=O)NCC(N)=O)CC2=O` (some centres undefined): the IC50 in the assay on Proteasome [1] is above 20 µM; on Calpain 1 [2], “No inhibition”.

Turning to `COc1ccc2c(c1)C(CC(=O)N[C@@H](CC(C)C)C(=O)N[C@@H](CC(C)C)C(N)=O)CC2=O` (some centres undefined), the IC50 was above 20 µM in the assay with Proteasome [1] and “No inhibition” at Calpain 1 [2].

With `COc1ccc2c(c1)C(CC(=O)N[C@@H](C(=O)N[C@H](CC(C)C)C(N)=O)C(C)C)CC2=O` (some centres undefined), the concentration for half-maximal inhibition (IC50) in the assay with Proteasome [1] is above 20 µM; against Calpain 1 [2] it was “No inhibition”.

Consider `COc1ccc2c(c1)C(CC(=O)N[C@@H](CC(C)C)C(=O)N[C@H](CC(C)C)C(=O)NC1CCc3ccccc31)CC2=O` (some centres undefined), for which the 50% inhibitory concentration (IC50) was 0.89 µM in the assay with Proteasome [1] and “No inhibition” on Calpain 1 [2].

In the case of `COc1ccc2c(c1)C(CC(=O)N[C@@H](CC(C)C)C(=O)N[C@H](CC(C)C)C(=O)NCc1ccco1)CC2=O` (some centres undefined), the IC50 in the assay with Proteasome [1] was 1.9 µM; at Calpain 1 [2], “No inhibition”.

With `COc1ccc2c(c1)C(CC(=O)N[C@@H](CC(C)C)C(=O)N[C@@H](CC(C)C)C(=O)NCC(N)=O)CC2=O` (some centres undefined), the values for the concentration for half-maximal inhibition (IC50) with Proteasome [1] and against Calpain 1 [2] were above 20 µM and “No inhibition”, respectively.

In the case of `COc1ccc2c(c1)C(CC(=O)N[C@H](CC(C)C)C(=O)N[C@H](CC(C)C)C(N)=O)CC2=O` (some centres undefined), the results for the IC50 with Proteasome [1] and at Calpain 1 [2] were 2.2 µM and “No inhibition”, respectively.

Consider `COc1ccc2c(c1)C(CC(=O)N[C@@H](CC(C)C)C(=O)N[C@H](CC(C)C)C(=O)N1CCCCC1)CC2=O` (some centres undefined), for which the IC50 is above 20 µM in the assay with Proteasome [1] and “No inhibition” against Calpain 1 [2].

In the case of `COc1ccc2c(c1)C(CC(=O)N[C@@H](CC(C)C)C(=O)N[C@H](CC(C)C)C(=O)Nc1ccccc1)CC2=O` (some centres undefined), the IC50 in the assay with Proteasome [1] was above 19 µM; on Calpain 1 [2], “No inhibition”.

With `COc1ccc2c(c1)C(CC(=O)N[C@@H](CC(C)C)C(=O)N[C@H](CC(C)C)C(=O)NCc1ccccc1)CC2=O` (some centres undefined), the results for the half-inhibitory concentration (IC50) in the assay on Proteasome [1], against Calpain 1 [2] and in the assay on RAW were 0.93 µM, “No inhibition” and 7 µM, respectively.

In the case of `COc1ccc2c(c1)C(CC(=O)N[C@H](CC(C)C)C(=O)N[C@@H](CC(C)C)C(=O)NCC(N)=O)CC2=O` (some centres undefined), the half-maximal inhibitory concentration (IC50) with Proteasome [3] is 10 µM; against Calpain 1 [2] it was “No inhibition”.

`COc1ccc2c(c1)C(CC(=O)N[C@H](CC(C)C)C(=O)N[C@@H](C(N)=O)C(C)C)CC2=O` (some centres undefined): the concentration for half-maximal inhibition (IC50) in the assay on Proteasome [1] is above 20 µM; on Calpain 1 [2] it was “No inhibition”.

Turning to `COc1ccc2c(c1)C(CC(=O)N[C@@H](CC(C)C)C(=O)N[C@H](CC(C)C)C(=O)NC1C3CC4CC(C3)CC1C4)CC2=O` (some centres undefined), the 50% inhibitory concentration (IC50) is above 18 µM in the assay with Proteasome [1] and “No inhibition” on Calpain 1 [2].

For `COc1ccc2c(c1)C(CC(=O)N[C@@H](CC(C)C)C(=O)N[C@H](CC(C)C)C(=O)NCc1ccc3c(c1)OCO3)CC2=O` (some centres undefined), the IC50 in the assay with Proteasome [1] was 0.34 µM; against Calpain 1 [2] it was “No inhibition”.

As for `COc1ccc2c(c1)C(CC(=O)N[C@H](CC(C)C)C(=O)N[C@@H](CC(C)C)C(N)=O)CC2=O` (some centres undefined), the results for the IC50 in the assay on Proteasome [1] and on Calpain 1 [2] were above 20 µM and “No inhibition”, respectively.

For the molecule `COc1ccc2c(c1)C(CC(=O)N[C@@H](CC(C)C)C(=O)N[C@H](CC(C)C)C(=O)NCc1c(F)c(F)c(F)c(F)c1F)CC2=O` (some centres undefined), the figures for the IC50 in the assay with Proteasome [1] and against Calpain 1 [2] were above 16 µM and “No inhibition”, respectively.

As for `CCC[C@H](NC(=O)CC1CC(=O)c2ccc(OC)cc21)C(=O)N[C@H](CC(C)C)C(=O)NCC(N)=O` (some centres undefined), the half-maximal inhibitory concentration (IC50) in the assay on Proteasome [1] was above 20 µM; on Calpain 1 [2], “No inhibition”.

For the molecule `COc1ccc2c(c1)C(CC(=O)N[C@@H](CC(C)C)C(=O)N[C@H](CC(C)C)C(=O)NCC1CCCCC1)CC2=O` (some centres undefined), the IC50 was above 18 µM in the assay with Proteasome [1] and “No inhibition” against Calpain 1 [2].

Turning to `COc1ccc2c(c1)C(CC(=O)N[C@@H](CC(C)C)C(=O)N[C@H](CC(C)C)C(=O)NCCO)CC2=O` (some centres undefined), the IC50 in the assay on Proteasome [1] was above 20 µM; against Calpain 1 [2] it was “No inhibition”.

Turning to `COc1ccc2c(c1)C(CC(=O)N[C@@H](CC(C)C)C(=O)N[C@H](CC(C)C)C(=O)NCC(N)=O)CC2=O` (some centres undefined), the results for the IC50 with Proteasome [1] and on Calpain 1 [2] were 0.2 µM and “No inhibition”, respectively.

As to `COc1ccc2c(c1)C(CC(=O)N[C@@H](CC(C)C)C(=O)N[C@H](CC(C)C)C(=O)N1CCCC1)CC2=O` (some centres undefined), the values for the half-maximal inhibitory concentration (IC50) with Proteasome [1] and against Calpain 1 [2] were above 20 µM and “No inhibition”, respectively.

In the case of `COc1ccc2c(c1)C(CC(=O)N[C@@H](CC(C)C)C(=O)N[C@H](CC(C)C)C(=O)N1CCOCC1)CC2=O` (some centres undefined), the IC50 with Proteasome [1] was above 20 µM; against Calpain 1 [2], “No inhibition”.

`COc1ccc2c(c1)C(CC(=O)N[C@@H](CC(C)C)C(=O)N[C@H](CC(C)C)C(N)=O)CC2=O` (some centres undefined): the IC50 in the assay on Proteasome [1] was above 20 µM; against Calpain 1 [2] it was “No inhibition”.

Take `COc1ccc2c(c1)C(CC(=O)N[C@@H](CC(C)C)C(=O)N[C@H](CC(C)C)C(=O)NCc1occ3ccccc13)CC2=O` (some centres undefined): the IC50 in the assay with Proteasome [1] is 8.7 µM; at Calpain 1 [2], “No inhibition”.

For `COc1ccc2c(c1)C(CC(=O)N[C@@H](CC(C)C)C(=O)N[C@H](CC(C)C)C(=O)NCc1c(F)cccc1F)CC2=O` (some centres undefined), the values for the IC50 with Proteasome [1], on Calpain 1 [2] and in the assay with RAW were 0.14 µM, “No inhibition” and 8 µM, respectively.

On to `COc1ccc2c(c1)C(CC(=O)N[C@@H](CC(C)C)C(=O)N[C@H](CC(C)C)C(=O)NCc1ccc(OCc3ccccc3)cc1)CC2=O` (some centres undefined), for which the IC50 with Proteasome [1] is 16 µM; against Calpain 1 [2], “No inhibition”.

Regarding `COc1ccc2c(c1)C(CC(=O)N[C@H](Cc1ccccc1)C(=O)N[C@H](CC(C)C)C(N)=O)CC2=O` (some centres undefined), the IC50 in the assay on Proteasome [1] was above 20 µM; on Calpain 1 [2], “No inhibition”.

`COc1ccc2c(c1)C(CC(=O)N[C@@H](CC(C)C)C(=O)N[C@H](CC(C)C)C(=O)NCCc1ccccc1)CC2=O` (some centres undefined): the IC50 is above 18 µM in the assay with Proteasome [1] and “No inhibition” against Calpain 1 [2].

Take `COc1ccc2c(c1)C(CC(=O)N[C@@H](CC(C)C)C(=O)N[C@H](CC(C)C)C(=O)NC(C)C)CC2=O` (some centres undefined): the 50% inhibitory concentration (IC50) in the assay on Proteasome [1] is above 20 µM; at Calpain 1 [2], “No inhibition”.

For `COc1ccc2c(c1)C(CC(=O)N[C@@H](CC(C)C)C(=O)N[C@H](CC(C)C)C(=O)NCc1ccccc1-c1ccccc1)CC2=O` (some centres undefined), the IC50 in the assay on Proteasome [1] is above 16 µM; at Calpain 1 [2] it was “No inhibition”.

For `COc1ccc2c(c1)C(CC(=O)N[C@@H](CC(C)C)C(=O)N[C@H](CC(C)C)C(=O)NCc1ccc(-c3ccccc3)cc1)CC2=O` (some centres undefined), the IC50 is 0.49 µM in the assay with Proteasome [1] and “No inhibition” at Calpain 1 [2].

Turning to `COc1ccc(CNC(=O)[C@@H](CC(C)C)NC(=O)[C@H](CC(C)C)NC(=O)CC2CC(=O)c3ccc(OC)cc32)cc1` (some centres undefined), the IC50 was 0.71 µM with Proteasome [1] and “No inhibition” against Calpain 1 [2].

For `COc1ccc2c(c1)C(CC(=O)N[C@@H](CC(C)C)C(=O)N[C@H](CC(C)C)C(=O)NC(c1ccccc1)c1ccccc1)CC2=O` (some centres undefined), the half-maximal inhibitory concentration (IC50) with Proteasome [1] was above 16 µM; at Calpain 1 [2], “No inhibition”.

Consider `CCCC[C@@H](C=O)NC(=O)[C@H](CC(C)C)NC(=O)[C@H](CC(C)C)NC(C)=O` (Ac-Leu-Leu-[Nle]-aldehyde), for which the IC50 was determined as 0.15 µM in the assay with Proteasome [1] and 7 µM against Calpain 1 [4].
